{"source": "patent US20100120762A1", "about": "“Triazine derivatives as inhibitors of phosphodiesterases” (WYETH, priority 2008, published 2010)", "key": {"mice [1]": {"test_system": "mice", "assay": "Light and dark box test", "assay_type": "in vivo, mouse", "details": "5 min exploration, FIG. 2", "description": "The light and dark box is an established animal model of anxiety (Crawley, 1985). The light and dark box consists of two chambers (each 30×30 cm) that are connected by an opening. There is an aversive chamber with white walls that is brightly lit (600 lux) and a dark chamber with black walls that is only lit by an infrared lamp ([…]). Untreated mice predominately stay in the dark chamber whereas mice treated with an anxiolytic compound go more often into the light chamber resulting in an increased number of transitions between the boxes and increased time in the light box. In addition the distance traveled in the dark chamber is regarded as an activity-related parameter. For the experiment, mice are placed in the light box after the pre-treatment time. Recording time starts when the mouse enters the dark box for the first time. Then the animal has 5 min to explore the two chambers. The behavior of the mice is recorded by video and analyzed by VideoMot 2 (TSE systems, Germany). […] Results are analyzed by t-test (two groups) or one way analysis of variance (ANOVA) when several groups are compared. Tukey test is used for individual comparison. P<0.05 is regarded as significant."}, "PDE10A1 (AB 020593)": {"target": "T1, PDE10A1 (AB 020593) (Homo sapiens, UniProt Q9Y233)", "T1 construct": "made in house; host or cells: baculovirus / SF21 insect cells (gene synthesized by Entelechon GmbH)", "T1 sequence (Q9Y233 other isoform, or with tags, fused parts or gaps)": "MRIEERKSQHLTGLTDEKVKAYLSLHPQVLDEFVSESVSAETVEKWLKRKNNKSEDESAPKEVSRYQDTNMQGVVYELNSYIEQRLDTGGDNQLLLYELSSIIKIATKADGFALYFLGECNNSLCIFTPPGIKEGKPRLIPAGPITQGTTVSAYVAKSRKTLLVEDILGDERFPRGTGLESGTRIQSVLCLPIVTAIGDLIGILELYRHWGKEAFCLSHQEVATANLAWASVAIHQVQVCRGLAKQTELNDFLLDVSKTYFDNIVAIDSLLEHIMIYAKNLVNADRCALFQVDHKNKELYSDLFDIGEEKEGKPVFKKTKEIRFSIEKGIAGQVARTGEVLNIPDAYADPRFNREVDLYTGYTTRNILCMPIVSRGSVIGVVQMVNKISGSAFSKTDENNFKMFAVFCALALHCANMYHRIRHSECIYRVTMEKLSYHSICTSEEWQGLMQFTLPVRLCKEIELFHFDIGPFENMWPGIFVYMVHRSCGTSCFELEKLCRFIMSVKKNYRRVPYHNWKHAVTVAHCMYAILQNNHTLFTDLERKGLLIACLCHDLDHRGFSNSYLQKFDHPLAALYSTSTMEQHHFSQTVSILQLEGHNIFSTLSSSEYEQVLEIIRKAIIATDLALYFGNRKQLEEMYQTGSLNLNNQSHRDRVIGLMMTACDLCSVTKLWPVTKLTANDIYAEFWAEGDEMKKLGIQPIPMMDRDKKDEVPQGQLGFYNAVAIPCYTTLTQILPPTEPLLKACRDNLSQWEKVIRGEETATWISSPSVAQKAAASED", "assay": "Inhibition of recombinant PDE10A (baculovirus/SF21 system)", "assay_type": "biochemical", "details": "recombinant cytosolic PDE10A, 0.1 μM [3H]-cAMP, 37° C., 30 minutes, SPA; read-out: PDE10A IC50", "summary_of_the_method": "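Cytosolic PDE10A1 expressed in SF21 cells via baculovirus, incubated with 0.1 μM [3H]-cAMP in 50 mM Tris-HCl/5 mM MgCl2, pH 7.4, 30 min at 37 °C. SPA-bead scintillation read-out, with enzyme-free wells as background. IC50 from Hill plot, 2-parameter model.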"}, "mice [2]": {"test_system": "mice", "assay": "Forced swim test", "assay_type": "in vivo, mouse", "details": "immobility recorded during last 4 min of 6 min, FIG. 1", "protocol": "The forced swim test is an established animal model of depression (Yacoubi et al., 2001). Mice which are forced to swim in a restricted area from which they cannot escape will rapidly cease attempts to escape and adopt a characteristic immobile posture which can be readily identified and timed. Immobility is taken as depression-related behaviour in the animal (Porsolt, 1979). For the test a glass cylinder (height: 20 cm, internal diameter: 15 cm) containing 11 cm water maintained at 23° C. is used. On the day of experiment the mice are forced to swim in the water for 6 min and the immobility time is recorded during the last 4 min of the 6-min-period. Afterwards animals are removed from the water, dried with a paper towel and put under infrared light. […] Results are analyzed by t-test (two groups) or one way analysis of variance (ANOVA) when several groups are compared. Tukey test is used for individual comparison. P<0.05 is regarded as significant."}, "PDE2A (NM002599)": {"target": "T2, PDE2A (NM002599) (Homo sapiens, UniProt O00408)", "T2 construct": "made in house; host or cells: baculovirus / SF21 insect cells", "T2 sequence (O00408 whole entry)": "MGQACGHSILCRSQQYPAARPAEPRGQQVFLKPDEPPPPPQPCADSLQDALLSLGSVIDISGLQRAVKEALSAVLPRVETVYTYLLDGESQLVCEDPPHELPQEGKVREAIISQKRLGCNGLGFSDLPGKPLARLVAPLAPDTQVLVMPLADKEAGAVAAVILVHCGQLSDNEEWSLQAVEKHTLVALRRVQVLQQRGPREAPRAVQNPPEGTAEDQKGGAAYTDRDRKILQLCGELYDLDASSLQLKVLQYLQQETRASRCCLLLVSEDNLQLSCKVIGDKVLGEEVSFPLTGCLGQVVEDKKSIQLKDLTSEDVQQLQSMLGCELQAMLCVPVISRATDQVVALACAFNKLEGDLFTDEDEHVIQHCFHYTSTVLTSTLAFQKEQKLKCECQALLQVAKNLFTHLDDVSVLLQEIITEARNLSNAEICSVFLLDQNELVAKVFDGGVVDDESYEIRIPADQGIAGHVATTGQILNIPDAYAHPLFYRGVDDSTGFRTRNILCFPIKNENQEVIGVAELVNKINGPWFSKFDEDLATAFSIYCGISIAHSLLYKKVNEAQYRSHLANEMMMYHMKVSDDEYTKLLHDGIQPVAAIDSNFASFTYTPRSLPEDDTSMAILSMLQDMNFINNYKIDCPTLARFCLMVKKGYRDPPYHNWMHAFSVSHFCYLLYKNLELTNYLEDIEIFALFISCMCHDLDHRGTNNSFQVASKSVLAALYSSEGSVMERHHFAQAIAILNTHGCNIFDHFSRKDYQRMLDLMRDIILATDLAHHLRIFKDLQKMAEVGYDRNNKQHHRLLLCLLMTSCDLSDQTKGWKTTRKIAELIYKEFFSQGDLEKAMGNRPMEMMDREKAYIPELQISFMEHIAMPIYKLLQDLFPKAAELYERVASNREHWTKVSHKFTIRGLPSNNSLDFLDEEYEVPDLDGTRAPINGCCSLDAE", "assay": "Inhibition of recombinant PDE2A (expressed in baculovirus/SF21-cells)", "assay_type": "biochemical", "details": "recombinant PDE2A, 0.5 μM [3H]-cAMP, 1000 nM cGMP, 37° C., 30 minutes, SPA; read-out: PDE2A IC50", "summary_of_the_method": "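Human PDE2A membrane fraction from baculovirus-infected SF21 cells; 0.5 μM [3H]-cAMP with 1000 nM cGMP as activator in 50 mM Tris-HCl/5 mM MgCl2 pH 7.4, 30 min at 37° C, SPA read-out. Non-specific activity measured without cGMP; IC50 by 2-parameter Hill fit.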"}, "Female Wistar-rats": {"test_system": "Female Wistar-rats", "assay": "Novel object recognition test", "assay_type": "in vivo, rat", "details": "MK-801 0.025 mg/kg intraperitoneally, compound given orally 30 min prior to the test session, FIG. 3", "protocol": "The novel object recognition is an animal model of learning and memory (Rutten et al., 2006a, 2006b).\nThe novel object recognition is performed in glass aquaria (40×60×40 cm) that have 3 black walls and one transparent wall. The floor consists of black, antislip PVC. Objects of different material (iron, plastic, coated hardwood) and forms and similar size are used for the experiment. The objects are positioned 10 cm from the wall and 35-40 cm from each other. Female Wistar-rats are used for this experiment.\nOne day before the experiment rats have 15 min to habituate to the arena and two objects.\nOn the first day of the experiment rats are placed into the arena and have five min to explore two equal objects. To disturb the learning process, MK-801 at 0.025 mg/kg is administered intraperitoneally on the first day of the experiment 30 min before the test starts.\nOn the second day of the experiment (24 h later) rats are again placed into the arena and have 5 min to explore one of the old objects and a novel object. […]\nThe following parameters are recorded: • 1. the time the rats spent with each object on the first day • 2. the time the rats spent with each object on the second day • 3. percent of time rats spent with the novel object on the second day […]\nResults are analyzed by t-test (two groups) or one way analysis of variance (ANOVA) when several groups are compared. […]"}}, "note": "Entries after “also recorded” stand apart in the source; their conditions may differ."}
{"smiles": "COc1ccc2nnc3c(C)nc(-c4ccccc4Cl)n3c2n1", "note": "[Example 6, 1-(2-chlorophenyl)-8-methoxy-3-methyl-imidazo[5,1-c]-pyrido[2,3-e][1,2,4]triazine]", "values": [{"measurement": "effect in the light and dark box test (anxiolytic)", "setting": "mice [1]", "result": "anxiolytic effect; also recorded: significant effect"}, {"measurement": "IC50", "setting": "PDE10A1 (AB 020593)", "result": 20.9, "unit": "nM"}, {"measurement": "effect in the forced swim test (antidepressant; immobility time)", "setting": "mice [2]", "result": "antidepressant effect; also recorded: significant effect"}, {"measurement": "IC50", "setting": "PDE2A (NM002599)", "result": 3.83, "unit": "nM"}, {"measurement": "effect in the novel object recognition test (cognition enhancing)", "setting": "Female Wistar-rats", "result": "significant effect"}]}
